The target in one experiment is T1, cIAP-1 BIR-3 (Homo sapiens, UniProt Q13490).
T1 construct: 40 nM of the respective IAP BIR3
Briefly: Fluorescence polarization binding to cIAP-1 BIR-3 with labeled peptide AbuRPF-K(5-Fam)-NH2. The conditions noted are these: cIAP-1 BIR-3, 40 nM BIR3, 5 nM labeled peptide, 15 min RT, pH 7.5; read-out: cIAP1, nM (binding affinity KD, as range). The essentials:
(§1)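 Competitive FP with 5 nM 5-Fam-labelled Smac-mimetic peptide and 40 nM IAP BIR3, 15 min at RT in 0.1 M potassium phosphate pH 7.5 with bovine γ-globulin. Polarization (mP) read at 485/520 nm; KD reported as ranges A–D (A <0.1 μM to D >10 μM).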
Background: Fluorescence polarisation rises when a labelled molecule tumbles more slowly, as on binding a larger partner.

A further experiment deals with T2, XIAP BIR-3 (Homo sapiens, UniProt P98170).
T2 construct: 40 nM of the respective IAP BIR3
T2 sequence (P98170 241-356 limits assumed): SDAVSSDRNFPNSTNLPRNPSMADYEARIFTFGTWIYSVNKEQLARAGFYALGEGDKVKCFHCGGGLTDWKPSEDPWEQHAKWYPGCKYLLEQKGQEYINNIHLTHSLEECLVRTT
Briefly: Fluorescence polarization binding to XIAP BIR-3 with labeled peptide AbuRPF-K(5-Fam)-NH2. To be noted: XIAP BIR-3, 40 nM BIR3, 5 nM labeled peptide, 15 min RT, pH 7.5; read-out: XIAP, nM (binding affinity KD, as range). Summed up: as §1

Another experiment deals with SK-OV-3 cells. Briefly: MTT cell growth inhibition assay in ovarian cancer cell line SK-OV-3. To be noted: Homo sapiens, 72 hrs incubation, read-out: SKOV3, nM (CC50, concentration giving 50% cell survival, as range). The experiment is classed as cell-based. Summed up:
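SK-OV-3 cells (5,000 per well, McCoy's medium with 10% FBS) exposed to compounds at 0.003-10 μM for 72 h at 37°C, followed by MTT for 3 h, DMSO solubilisation and OD at 535 nm. CC50 is the concentration giving 50% survival relative to control wells, reported in ranges (A <0.1 μM to D >10 μM).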

A value given as a limit tells only on which side of the number the result lay.

T1 sequence (Q13490 253-363 limits assumed): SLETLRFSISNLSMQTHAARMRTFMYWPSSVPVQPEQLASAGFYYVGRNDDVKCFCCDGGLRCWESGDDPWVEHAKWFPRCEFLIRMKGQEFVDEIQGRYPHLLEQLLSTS

As usually defined, the Kd is the equilibrium constant for the complex coming apart. Regarding `CN[C@@H](C)C(=O)N[C@H](C(=O)N1CC[C@@H]2[C@H]1[C@@H](C(=O)N[C@@H](C)c1ccccc1)CN2S(C)(=O)=O)C1CCCCC1` [Example 11, 4-[2-Cyclohexyl-2-(2-methylamino-propionylamino)-acetyl]-1-methanesulfonyl-octahydro-pyrrolo[3,2-b]pyrrole-3-carboxylic acid (1-phenyl-ethyl)-amide], the Kd at cIAP-1 BIR-3 and at XIAP BIR-3 was below 100 nM throughout. Besides, the CC50 with SK-OV-3 cells lay within 100 to 1000 nM.

Take `CN[C@@H](C)C(=O)N[C@H](C(=O)N1CC[C@@H]2[C@H]1[C@@H](C(=O)NCc1ccccc1)CN2S(C)(=O)=O)C(C)(C)C` [Example 20, 4-[3,3-Dimethyl-2-(2-methylamino-propionylamino)-butyryl]-1-methanesulfonyl-octahydro-pyrrolo[3,2-b]pyrrole-3-carboxylic acid benzylamide]: the Kd on cIAP-1 BIR-3 and on XIAP BIR-3 was below 100 nM in each case. In the experiment on SK-OV-3 cells, the CC50 is below 100 nM.

For the compound `CN[C@@H](C)C(=O)N[C@H](C(=O)N1CC[C@@H]2[C@H]1[C@@H](C(=O)Nc1cnc3ccccc3c1)CN2S(C)(=O)=O)C(C)(C)C` [Example 51, 4-[3,3-Dimethyl-2-(2-methylamino-propionylamino)-butyryl]-1-methanesulfonyl-octahydro-pyrrolo[3,2-b]pyrrole-3-carboxylic acid quinolin-3-ylamide], the Kd at cIAP-1 BIR-3 is below 100 nM; on XIAP BIR-3, 100 to 1000 nM. Further, the CC50 in the experiment on SK-OV-3 cells is below 100 nM.

Consider `CN[C@@H](C)C(=O)N[C@H](C(=O)N1CC[C@@H]2[C@H]1[C@@H](C(=O)Nc1ccc(F)cc1)CN2C(=O)CNC(=O)C(=O)NCC(=O)N1C[C@H](C(=O)Nc2ccc(F)cc2)[C@@H]2[C@H]1CCN2C(=O)[C@@H](NC(=O)[C@H](C)NC)C(C)(C)C)C(C)(C)C` [Example 54, N,N′-Bis-{2-[4-[3,3-dimethyl-2-(2-methylamino-propionylamino)-butyryl]-3-(4-fluoro-phenylcarbamoyl)-hexahydro-pyrrolo[3,2-b]pyrrol-1-yl]-2-oxo-ethyl}-oxalamide], for which the Kd at cIAP-1 BIR-3 and on XIAP BIR-3 was below 100 nM throughout. In addition, in the experiment on SK-OV-3 cells, the CC50 was below 100 nM.

Regarding `CN[C@@H](C)C(=O)N[C@H](C(=O)N1CC[C@@H]2[C@H]1[C@@H](C(=O)NCCc1ccccc1)CN2S(C)(=O)=O)C1CCCCC1` [Example 16, 4-[2-Cyclohexyl-2-(2-methylamino-propionylamino)-acetyl]-1-methanesulfonyl-octahydro-pyrrolo[3,2-b]pyrrole-3-carboxylic acid-phenethyl-amide], the Kd on cIAP-1 BIR-3 and at XIAP BIR-3 was below 100 nM throughout. For the same compound, the CC50 in the experiment with SK-OV-3 cells is 100 to 1000 nM.

With `CNC(=O)N1C[C@H](C(=O)Nc2cccc3ccccc23)[C@@H]2[C@H]1CCN2C(=O)[C@@H](NC(=O)[C@H](C)NC)C(C)(C)C` [Example 42, 4-[3,3-Dimethyl-2-(2-methylamino-propionylamino)-butyryl]-hexahydro-pyrrolo[3,2-b]pyrrole-1,3-dicarboxylic acid 1-methylamide 3-naphthalen-1-ylamide], the Kd on cIAP-1 BIR-3 and at XIAP BIR-3 was below 100 nM in each case. The CC50 in the experiment with SK-OV-3 cells was below 100 nM.

Take `CN[C@@H](C)C(=O)N[C@H](C(=O)N1CC[C@@H]2[C@H]1[C@@H](C(=O)NCc1ccc(F)cc1)CN2C(C)=O)C(C)(C)C` [Example 35, 1-Acetyl-4-[3,3-dimethyl-2-(2-methylamino-propionylamino)-butyryl]-octahydro-pyrrolo[3,2-b]pyrrole-3-carboxylic acid 4-fluoro-benzylamide]: the Kd at cIAP-1 BIR-3 and on XIAP BIR-3 was below 100 nM in each case. Also, in the experiment with SK-OV-3 cells, the CC50 was below 100 nM.

In the case of `CN[C@@H](C)C(=O)N[C@H](C(=O)N1CC[C@@H]2[C@H]1[C@@H](C(=O)Nc1ccc3ncccc3c1)CN2S(C)(=O)=O)C(C)(C)C` [Example 50, 4-[3,3-Dimethyl-2-(2-methylamino-propionylamino)-butyryl]-1-methanesulfonyl-octahydro-pyrrolo[3,2-b]pyrrole-3-carboxylic acid quinolin-6-ylamide], the Kd at cIAP-1 BIR-3 is below 100 nM; on XIAP BIR-3, 100 to 1000 nM. The CC50 in the experiment on SK-OV-3 cells is below 100 nM.

Turning to `CN[C@@H](C)C(=O)N[C@H](C(=O)N1CC[C@@H]2[C@H]1[C@@H](C(=O)N[C@@H]1CCCc3ccccc31)CN2C(=O)OC)C1CCCCC1` [Example 39, 4-[2-Cyclohexyl-2-(2-methylamino-propionylamino)-acetyl]-3-(1,2,3,4-tetrahydro-naphthalen-1-ylcarbamoyl)-hexahydro-pyrrolo[3,2-b]pyrrole-1-carboxylic acid methyl ester], the Kd at cIAP-1 BIR-3 and on XIAP BIR-3 was below 100 nM throughout. Besides, the CC50 in the experiment with SK-OV-3 cells was below 100 nM.

Regarding `CN[C@@H](C)C(=O)N[C@H](C(=O)N1CC[C@@H]2[C@H]1[C@@H](C(=O)N[C@H](C)c1ccccc1)CN2S(C)(=O)=O)C1CCCCC1` [Example 7, 4-[2-Cyclohexyl-2-(2-methylamino-propionylamino)-acetyl]-1-methanesulfonyl-octahydro-pyrrolo[3,2-b]pyrrole-3-carboxylic acid (1-phenyl-ethyl)-amide], the Kd on cIAP-1 BIR-3 was below 100 nM; on XIAP BIR-3 it was 100 to 1000 nM. The CC50 in the experiment with SK-OV-3 cells was 100 to 1000 nM.

The values above are taken from patent US8481495B2 (TetraLogic Pharmaceuticals Corporation, priority 2009, dated 2013).
